Here are results for 35 compounds from ChEMBL document CHEMBL2440083 (J Med Chem, 2013).

The target of data set [1] is T1, Mu-type opioid receptor (Homo sapiens, UniProt P35372). Nature of the data set: Agonist activity at human mu opioid receptor expressed in HEK293 cells assessed as inhibition of forskolin-stimulated cAMP accumulation by fluorescence assay. The data set is classed as functional, cell-based. On the technique in general: cAMP levels reflect the balance of adenylyl cyclase and phosphodiesterase activity.
T1 sequence (P35372 whole entry): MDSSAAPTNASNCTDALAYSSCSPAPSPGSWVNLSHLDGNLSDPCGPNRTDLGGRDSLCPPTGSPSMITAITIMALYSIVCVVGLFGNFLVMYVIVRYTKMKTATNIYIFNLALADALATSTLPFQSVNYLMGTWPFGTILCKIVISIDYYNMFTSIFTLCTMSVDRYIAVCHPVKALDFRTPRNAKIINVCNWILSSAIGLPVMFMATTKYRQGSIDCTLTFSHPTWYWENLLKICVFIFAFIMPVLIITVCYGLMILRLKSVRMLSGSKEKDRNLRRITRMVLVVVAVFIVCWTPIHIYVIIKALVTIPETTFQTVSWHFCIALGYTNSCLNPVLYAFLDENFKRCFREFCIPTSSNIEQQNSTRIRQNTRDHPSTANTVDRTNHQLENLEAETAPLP

The target of data set [2] is T1, Mu-type opioid receptor. Nature of the data set: Agonist activity at human mu opioid receptor expressed in HEK293 cells assessed as beta-arrestin recruitment by chemiluminescence assay. In kind it is cell-based. On the technique in general: Activated receptors often draw arrestin, which recruitment assays turn into a signal.
Data set [3] is described as follows: Cardiotoxicity in isolated rabbit left ventricular wedge model assessed as torsade de pointes score up to 30 uM. The data set is classed as toxicity, tissue-based, Oryctolagus cuniculus, Heart left ventricle.
Data set [4] in a line: Cardiotoxicity in isolated rabbit left ventricular wedge model assessed as proarrhyhmic event. In kind it is toxicity, tissue-based, Oryctolagus cuniculus, Heart left ventricle.
For data set [5], the system named is Cynomolgus monkey. Description: Cardiotoxicity in cynomolgus monkey assessed as QT interval. The data set is classed as toxicity, organism-based, Macaca fascicularis. The note with it: in vivo.
The subject of data set [6] is Cynomolgus monkey. Nature of the data set: Cardiotoxicity in cynomolgus monkey assessed as QTc interval. The data set is classed as toxicity, organism-based, Macaca fascicularis. The note with it: in vivo.
Data set [7] relates to Cynomolgus monkey. Nature of the data set: Cardiotoxicity in cynomolgus monkey assessed as PR interval. In kind it is toxicity, organism-based, Macaca fascicularis. The conditions noted are these: in vivo.
Data set [8] has as its system Cynomolgus monkey. Description: Cardiotoxicity in cynomolgus monkey assessed as QRS duration. In kind it is toxicity, organism-based, Macaca fascicularis. The conditions noted are these: in vivo.
Data set [9] can be described thus: Cardiotoxicity in isolated rabbit left ventricular wedge model assessed as increase in Tp-e interval at 1 uM. The data set is classed as toxicity, tissue-based, Oryctolagus cuniculus, Heart left ventricle.
A short description of data set [10]: Cardiotoxicity in isolated rabbit left ventricular wedge model assessed as increase in QT interval at 0.3 uM. The data set is classed as toxicity, tissue-based, Oryctolagus cuniculus, Heart left ventricle.
Data set [11] has as its target Voltage-dependent L-type calcium channel subunit alpha-1C (Homo sapiens, UniProt Q13936). Nature of the data set: Inhibition of human Cav 1.2 ion channel expressed in HEK293 cells by whole-cell patch clamp technique. The data set is classed as cell-based.
For data set [12], the target named is T2, Sodium channel protein type 5 subunit alpha (Homo sapiens, UniProt Q14524). Description: Inhibition of human Nav 1.5 tonic ion channel expressed in HEK293 cells by whole-cell patch clamp technique. In kind it is cell-based. (Patch clamp records ionic current or voltage across a cell membrane.)
T2 sequence (Q14524 whole entry): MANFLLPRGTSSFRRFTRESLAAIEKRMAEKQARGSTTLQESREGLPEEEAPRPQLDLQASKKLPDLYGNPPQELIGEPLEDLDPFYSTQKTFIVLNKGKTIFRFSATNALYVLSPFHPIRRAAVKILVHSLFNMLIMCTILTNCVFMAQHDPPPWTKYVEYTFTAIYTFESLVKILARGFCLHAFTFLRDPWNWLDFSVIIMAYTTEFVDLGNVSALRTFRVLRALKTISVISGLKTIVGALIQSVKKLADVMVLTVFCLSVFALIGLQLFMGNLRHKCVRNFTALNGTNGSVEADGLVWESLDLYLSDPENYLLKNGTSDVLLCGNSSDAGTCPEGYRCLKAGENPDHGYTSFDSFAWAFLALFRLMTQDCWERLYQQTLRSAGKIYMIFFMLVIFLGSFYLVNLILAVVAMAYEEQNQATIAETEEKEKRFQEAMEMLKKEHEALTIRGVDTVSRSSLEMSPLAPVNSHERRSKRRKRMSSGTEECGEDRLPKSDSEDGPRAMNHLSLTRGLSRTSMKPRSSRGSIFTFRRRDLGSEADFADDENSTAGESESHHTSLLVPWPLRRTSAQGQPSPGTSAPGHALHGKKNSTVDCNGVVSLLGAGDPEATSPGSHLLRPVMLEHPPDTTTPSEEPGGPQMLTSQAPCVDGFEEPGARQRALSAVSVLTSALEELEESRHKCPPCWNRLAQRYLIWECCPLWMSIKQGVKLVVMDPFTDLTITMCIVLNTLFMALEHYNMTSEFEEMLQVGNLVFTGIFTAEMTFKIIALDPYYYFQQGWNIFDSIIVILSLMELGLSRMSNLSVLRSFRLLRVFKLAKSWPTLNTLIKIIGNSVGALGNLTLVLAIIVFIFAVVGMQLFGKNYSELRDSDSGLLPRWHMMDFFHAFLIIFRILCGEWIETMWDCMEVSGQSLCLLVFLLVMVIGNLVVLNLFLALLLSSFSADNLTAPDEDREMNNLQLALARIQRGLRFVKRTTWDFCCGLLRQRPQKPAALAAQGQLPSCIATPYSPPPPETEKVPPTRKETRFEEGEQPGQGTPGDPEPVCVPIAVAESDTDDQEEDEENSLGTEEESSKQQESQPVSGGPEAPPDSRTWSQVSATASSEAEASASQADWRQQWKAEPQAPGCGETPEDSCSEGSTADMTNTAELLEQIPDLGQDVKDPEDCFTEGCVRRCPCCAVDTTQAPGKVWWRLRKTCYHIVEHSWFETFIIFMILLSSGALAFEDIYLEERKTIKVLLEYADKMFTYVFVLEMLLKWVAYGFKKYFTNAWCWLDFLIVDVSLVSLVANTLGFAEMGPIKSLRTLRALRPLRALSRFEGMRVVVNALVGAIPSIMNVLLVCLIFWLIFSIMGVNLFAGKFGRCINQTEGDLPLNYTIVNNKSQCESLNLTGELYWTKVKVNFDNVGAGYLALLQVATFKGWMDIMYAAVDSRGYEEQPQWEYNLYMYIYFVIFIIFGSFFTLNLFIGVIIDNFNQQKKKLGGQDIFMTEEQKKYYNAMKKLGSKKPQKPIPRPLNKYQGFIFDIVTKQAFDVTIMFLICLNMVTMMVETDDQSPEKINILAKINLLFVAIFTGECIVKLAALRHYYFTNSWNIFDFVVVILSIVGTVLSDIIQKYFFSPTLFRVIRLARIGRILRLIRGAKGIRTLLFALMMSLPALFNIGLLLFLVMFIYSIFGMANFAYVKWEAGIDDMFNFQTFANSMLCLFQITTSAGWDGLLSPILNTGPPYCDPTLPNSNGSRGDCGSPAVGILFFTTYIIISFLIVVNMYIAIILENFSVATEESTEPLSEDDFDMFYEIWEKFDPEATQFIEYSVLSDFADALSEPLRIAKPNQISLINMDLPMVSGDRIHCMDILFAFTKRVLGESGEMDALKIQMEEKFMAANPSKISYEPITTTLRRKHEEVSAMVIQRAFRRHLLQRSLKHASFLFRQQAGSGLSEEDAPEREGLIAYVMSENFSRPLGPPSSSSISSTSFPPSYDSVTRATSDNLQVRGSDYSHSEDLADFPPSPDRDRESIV
The target of data set [13] is T2, Sodium channel protein type 5 subunit alpha. Nature of the data set: Inhibition of human Nav 1.5 phasic ion channel expressed in HEK293 cells by whole-cell patch clamp technique. In kind it is cell-based.
The target in data set [14] is Voltage-gated inwardly rectifying potassium channel KCNH2 (Homo sapiens, UniProt Q12809). Nature of the data set: Inhibition of human ERG channel expressed in HEK293 cells by whole-cell patch clamp technique. In kind it is cell-based.
Sequence of Voltage-gated inwardly rectifying potassium channel KCNH2 (Q12809 whole entry): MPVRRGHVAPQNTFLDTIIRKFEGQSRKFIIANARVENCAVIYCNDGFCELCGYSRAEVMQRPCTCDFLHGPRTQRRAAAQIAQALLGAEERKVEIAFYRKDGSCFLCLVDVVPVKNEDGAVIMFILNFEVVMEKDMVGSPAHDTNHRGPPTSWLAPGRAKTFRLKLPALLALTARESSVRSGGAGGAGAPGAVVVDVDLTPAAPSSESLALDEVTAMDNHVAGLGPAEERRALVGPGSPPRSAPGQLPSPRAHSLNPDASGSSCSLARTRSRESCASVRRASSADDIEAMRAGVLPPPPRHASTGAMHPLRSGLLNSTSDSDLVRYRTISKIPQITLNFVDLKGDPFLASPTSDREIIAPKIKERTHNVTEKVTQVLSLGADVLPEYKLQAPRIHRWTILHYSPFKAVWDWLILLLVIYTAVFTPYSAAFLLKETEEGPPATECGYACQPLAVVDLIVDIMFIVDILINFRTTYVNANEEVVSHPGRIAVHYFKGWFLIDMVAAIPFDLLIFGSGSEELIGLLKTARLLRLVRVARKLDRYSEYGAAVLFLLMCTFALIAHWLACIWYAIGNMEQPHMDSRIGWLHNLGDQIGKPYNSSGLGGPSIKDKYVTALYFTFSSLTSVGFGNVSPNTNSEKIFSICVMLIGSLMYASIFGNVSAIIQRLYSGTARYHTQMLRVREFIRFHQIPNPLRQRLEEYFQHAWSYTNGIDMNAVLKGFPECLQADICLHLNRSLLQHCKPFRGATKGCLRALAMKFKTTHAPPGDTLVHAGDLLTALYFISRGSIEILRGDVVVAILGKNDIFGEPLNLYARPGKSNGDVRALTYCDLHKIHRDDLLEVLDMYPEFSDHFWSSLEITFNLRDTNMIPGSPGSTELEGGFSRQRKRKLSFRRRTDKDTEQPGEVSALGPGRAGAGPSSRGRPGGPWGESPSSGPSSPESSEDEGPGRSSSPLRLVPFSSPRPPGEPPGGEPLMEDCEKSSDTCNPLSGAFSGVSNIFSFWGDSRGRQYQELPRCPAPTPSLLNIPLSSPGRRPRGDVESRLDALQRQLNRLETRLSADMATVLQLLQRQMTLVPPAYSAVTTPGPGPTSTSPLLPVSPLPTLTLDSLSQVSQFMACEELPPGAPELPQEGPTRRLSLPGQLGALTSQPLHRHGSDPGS
In data set [15] the target is Delta-type opioid receptor (Homo sapiens, UniProt P41143). Nature of the data set: Agonist activity at human delta opioid receptor expressed in HEK293 cells assessed as inhibition of forskolin-stimulated cAMP accumulation by fluorescence assay. In kind it is functional, cell-based.
Sequence of Delta-type opioid receptor (P41143 whole entry): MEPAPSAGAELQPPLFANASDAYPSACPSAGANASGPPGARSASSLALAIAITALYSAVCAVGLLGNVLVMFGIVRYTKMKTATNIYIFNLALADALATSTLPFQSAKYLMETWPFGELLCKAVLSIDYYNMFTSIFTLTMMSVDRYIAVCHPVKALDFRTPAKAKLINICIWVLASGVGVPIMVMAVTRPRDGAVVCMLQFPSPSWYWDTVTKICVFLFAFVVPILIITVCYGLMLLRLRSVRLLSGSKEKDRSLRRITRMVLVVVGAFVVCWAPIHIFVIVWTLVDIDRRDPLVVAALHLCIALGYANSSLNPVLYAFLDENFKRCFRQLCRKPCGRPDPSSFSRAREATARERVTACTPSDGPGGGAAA
For data set [16], the target named is Kappa-type opioid receptor (Homo sapiens, UniProt P41145). Nature of the data set: Agonist activity at human kappa opioid receptor expressed in HEK293 cells assessed as inhibition of forskolin-stimulated cAMP accumulation by fluorescence assay. In kind it is functional, cell-based.
Sequence of Kappa-type opioid receptor (P41145 whole entry): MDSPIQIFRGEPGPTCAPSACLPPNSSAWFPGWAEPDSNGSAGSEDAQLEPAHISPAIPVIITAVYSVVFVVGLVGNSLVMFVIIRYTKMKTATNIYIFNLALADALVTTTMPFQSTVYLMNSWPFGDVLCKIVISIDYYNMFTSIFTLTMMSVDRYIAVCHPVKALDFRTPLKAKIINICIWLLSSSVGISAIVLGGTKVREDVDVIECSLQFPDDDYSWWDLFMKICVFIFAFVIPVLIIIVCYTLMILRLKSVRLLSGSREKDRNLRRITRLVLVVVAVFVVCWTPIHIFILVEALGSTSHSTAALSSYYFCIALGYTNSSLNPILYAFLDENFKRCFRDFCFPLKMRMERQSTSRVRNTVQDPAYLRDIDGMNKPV
In data set [17] the test system is Mus musculus. Description: Analgesic effect in mouse at 6 mg/kg, sc after 30 mins by hot plate assay. In kind it is functional. The note with it: route subcutaneous.
The nature of data set [18]: Cardiotoxicity in isolated rabbit left ventricular wedge model assessed as torsade de pointes score at 0.3 to 1 uM. In kind it is toxicity, tissue-based, Oryctolagus cuniculus, Heart left ventricle.
Data set [19] is described as follows: Cardiotoxicity in isolated rabbit left ventricular wedge model assessed as increase in QT interval at 1 uM. The data set is classed as toxicity, tissue-based, Oryctolagus cuniculus, Heart left ventricle.
The test system of data set [20] is HEK293. Nature of the data set: Selectivity ratio of EC50 for human mu opioid receptor expressed in HEK293 cells over EC50 for human delta opioid receptor expressed in HEK293 cells. The data set is classed as cell-based.
For data set [21], the system named is HEK293. Nature of the data set: Selectivity ratio of EC50 for human mu opioid receptor expressed in HEK293 cells over EC50 for human kappa opioid receptor expressed in HEK293 cells. In kind it is cell-based.
For data set [22], the system named is Mus musculus. Description: Toxicity in mouse fecal boli accumulation model assessed as fecal boli production at equianalgesic dose, sc after 4 hrs relative to morphine. In kind it is organism-based. The note with it: in vivo.
Data set [23] has as its system Mus musculus. Description: Toxicity in mouse glass bead model assessed as retention time of colonic motility at 3 mg/kg, sc. The note with it: in vivo. In kind it is organism-based, Colon. More on the design: dose 3 mg/kg, route subcutaneous.
In data set [24] the test system is Mus musculus. Nature of the data set: Analgesic effect in mouse at 3 mg/kg, sc after 30 mins by hot plate assay. The data set is classed as functional. The note with it: route subcutaneous.
For data set [25], the system named is Mus musculus. Nature of the data set: Analgesic effect in sc dosed mouse by hot plate assay. The data set is classed as functional.

A word on the EC50: it is the concentration giving half of the maximal effect. Consider `c1ccc([C@]2(CCNCc3cccnc3)CCOC3(CCCC3)C2)nc1`, for which, at Mu-type opioid receptor [1], the EC50 is 200 nM.
On to `Cc1ccc(CNCC[C@@]2(c3ccccn3)CCOC3(CCCC3)C2)o1`, for which the EC50 was 200 nM at Mu-type opioid receptor [2] and 50.1 nM at Mu-type opioid receptor [1].
In the same order, the values of `c1ccc(CNCC[C@]2(c3ccccn3)CCOC3(CCCC3)C2)cc1` are 15800 nM and 631 nM.
For the compound `CC1(C)CC(CCNCc2ccccc2)(c2ccc(F)cc2)CCO1` (stereo not drawn), the EC50 at Mu-type opioid receptor [1] was 1580 nM.
One may read the IC50 as the concentration that inhibits the measured activity by half. Take `COc1ccsc1CNCC[C@@]1(c2ccccn2)CCOC2(CCCC2)C1` [OLICERIDINE]: the Activity entry (in data set [3]; in data set [4]; with Cynomolgus monkey [5]; in the data set on Cynomolgus monkey [6]; in the data set with Cynomolgus monkey [7]; in the data set with Cynomolgus monkey [8]) was “Non-toxic” throughout. For the same compound, the Activity in data set [9] came to 7%; in data set [10], 3%. For the same compound, the IC50 in data set [11] turned out to be 36000 nM; in data set [12], 16500 nM; in [13], 4700 nM; in data set [14], 6200 nM. In addition, the EC50 in data set [15] is 2800 nM; in [16] it was 1400 nM.
Consider `Clc1cccc(CNCC[C@@]2(c3ccccn3)CCOC3(CCCC3)C2)c1`, for which the EC50 is 50.1 nM on Mu-type opioid receptor [2] and 2.51 nM on Mu-type opioid receptor [1].
With `Cc1cc(CNCC[C@@]2(c3ccccn3)CCOC3(CCCC3)C2)oc1C`, the EC50 is 316 nM at Mu-type opioid receptor [2] and 31.6 nM on Mu-type opioid receptor [1].
In the same order, the values of `CC[C@]1(C)CC(CCNCc2ccccc2O)(c2ccc(F)cc2)CCO1` (stereo partly drawn) are 1580 nM and 39.8 nM.
For the compound `CC[C@]1(C)CC(CCNCc2ccccc2O)(c2ccc(C)cc2)CCO1` (stereo partly drawn), the EC50 at Mu-type opioid receptor [2] is 2000 nM; on Mu-type opioid receptor [1] it was 501 nM.
In the case of `Cc1cc(CNCC[C@@]2(c3ccccn3)CCOC3(CCCC3)C2)sc1C`, the EC50 is 501 nM on Mu-type opioid receptor [2] and 5.01 nM at Mu-type opioid receptor [1].
Consider `C[C@@H](NCC[C@@]1(c2ccc(F)cc2)CCOC2(CCCC2)C1)c1ccccc1`, for which the EC50 at Mu-type opioid receptor [1] was 1000 nM.
As for `c1ccc(CNCCC2(c3ccccn3)CCOC3(CCCC3)C2)cc1` (racemic), the EC50 on Mu-type opioid receptor [2] was 200 nM; on Mu-type opioid receptor [1] it was 50.1 nM.
In the same order, the values of `CCC1(CC)CC(CCNCc2ccccc2)(c2ccc(F)cc2)CCO1` (stereo not drawn) are 6310 nM and 251 nM.
Turning to `c1ccc(CNCC[C@@]2(c3ccccn3)CCOC3(CCCC3)C2)nc1`, the EC50 on Mu-type opioid receptor [1] was 158 nM.
`c1ccc([C@]2(CCNCc3ccc4ccccc4c3)CCOC3(CCCC3)C2)nc1`: the half-maximal effective concentration (EC50) on Mu-type opioid receptor [2] was 20000 nM; at Mu-type opioid receptor [1], 158 nM.
For `Fc1ccc([C@]2(CCNCc3ccccc3)CCOC3(CCCC3)C2)cc1`, the EC50 on Mu-type opioid receptor [2] is 398 nM; on Mu-type opioid receptor [1], 31.6 nM.
In the data set on Mus musculus [17], `CN1CC[C@]23c4c5ccc(O)c4O[C@H]2[C@@H](O)C=C[C@H]3[C@H]1C5` [MORPHINE] displayed an MPE of 69%.
Consider `Cc1cc(C)c(CNCC[C@@]2(c3ccccn3)CCOC3(CCCC3)C2)s1`, for which the EC50 at Mu-type opioid receptor [2] was 631 nM; at Mu-type opioid receptor [1], 25.1 nM.
In the same order, the values of `c1ccc([C@]2(CCNCc3ccsc3)CCOC3(CCCC3)C2)nc1` are 63.1 nM and 12.6 nM.
For `C[C@H](NCC[C@@]1(c2ccc(F)cc2)CCOC2(CCCC2)C1)c1ccccc1`, the EC50 on Mu-type opioid receptor [1] is 501 nM.
Same read-out and setting: to `c1ccc([C@]2(CCNCc3ccncc3)CCOC3(CCCC3)C2)nc1` belongs 1260 nM.
By ED50 is commonly meant the dose that gives a 50% effect, or the effect in half of the subjects. For `c1ccc([C@]2(CCNCc3cccs3)CCOC3(CCCC3)C2)nc1`, the Activity entry was “Toxic” in data set [18], 40% in [19] and 65% in data set [9]. In addition, the 50% inhibitory concentration (IC50) was above 100000 nM in [11], 20000 nM in data set [12], 9000 nM in [13] and 2300 nM in data set [14]. In addition, the Ratio EC50 in the data set with HEK293 [20] stood at 56; in the data set on HEK293 [21], 71. Also, the EC50 is 750 nM in data set [15], 900 nM in data set [16], 251 nM at Mu-type opioid receptor [2] and 15.8 nM at Mu-type opioid receptor [1]. Also, the “fold change (FC)” value in the data set on Mus musculus [22] is on record as 2. Also, the Retention_time in the data set on Mus musculus [23] was found to be 65 min. In the data set on Mus musculus [24], this compound displayed an MPE of 79%. Besides, the ED50 in the data set with Mus musculus [25] amounted to 1.1 mg/kg.
On to `c1ccc([C@]2(CCNCc3ccncn3)CCOC3(CCCC3)C2)nc1`, for which the EC50 was 2000 nM at Mu-type opioid receptor [2] and 794 nM at Mu-type opioid receptor [1].
`Cc1ccc(CNCC[C@@]2(c3ccccn3)CCOC3(CCCC3)C2)s1`: at Mu-type opioid receptor [1], the EC50 is 15.8 nM.
Still for that read-out and setting: to `c1ccc([C@]2(CCNCc3cnccn3)CCOC3(CCCC3)C2)nc1` belongs 631 nM.
Turning to `Cc1csc(CNCC[C@@]2(c3ccccn3)CCOC3(CCCC3)C2)c1`, the EC50 at Mu-type opioid receptor [2] was 398 nM; at Mu-type opioid receptor [1], 5.01 nM.
Consider `c1ccc([C@]2(CCNCC3CCCC3)CCOC3(CCCC3)C2)nc1`, for which, on Mu-type opioid receptor [1], the EC50 was 31.6 nM.
The same measure, in the same setting: to `Cc1ccsc1CNCC[C@@]1(c2ccccn2)CCOC2(CCCC2)C1` belongs 6.31 nM; to `Cc1ccc(C2(CCNCc3ccccc3O)CCOCC2)cc1`, 10000 nM.
Regarding `Clc1ccccc1CNCC[C@@]1(c2ccccn2)CCOC2(CCCC2)C1`, the EC50 at Mu-type opioid receptor [1] is 10 nM.
Take `Fc1ccc(C2(CCNCc3ccccc3)CCOC3(CCCCC3)C2)cc1` (stereo not drawn): the EC50 is 7940 nM on Mu-type opioid receptor [2] and 398 nM at Mu-type opioid receptor [1].
In the same order, the values of `Fc1ccc([C@@]2(CCNCc3ccccc3)CCOC3(CCCC3)C2)cc1` are 7940 nM and 501 nM.
In the same order, the values of `Fc1ccc(C2(CCNCc3ccccc3)CCOC3(CCCC3)C2)cc1` (racemic) are 631 nM and 79.4 nM.
As for `CC(C)(NCC[C@@]1(c2ccc(F)cc2)CCOC2(CCCC2)C1)c1ccccc1`, the EC50 at Mu-type opioid receptor [1] was 3160 nM.
Consider `c1ccc(CNCC[C@@]2(c3ccccn3)CCOC3(CCCC3)C2)cc1`, for which the EC50 at Mu-type opioid receptor [2] was 158 nM; at Mu-type opioid receptor [1], 12.6 nM.
